According to patent US20230174526A1, “BENZOTHIAZOLYL BIARYL COMPOUND, AND PREPARATION METHOD AND USE” (SHANGHAI RINGENE BIOPHARMA CO., LTD., priority 2020, published 2023):

Assays:
CYP3A4 = target: T1, CYP3A4 (Homo sapiens, UniProt P08684); assay: Direct inhibition test (DI test), CYP3A4; assay type: in vitro ADME; details: human liver microsomes
T1 construct: a system of 100 µL of human liver microsomes (final concentration 0.2 mg/mL); from tissue; host or cells: human liver microsomes
Protocol: (§1) Direct inhibition test (DI test): direct inhibition warm incubation was performed with a system of 100 µL of human liver microsomes (final concentration 0.2 mg/mL) containing NADPH (final concentration 1 mM), 10 µM compound, positive inhibitor cocktail (ketoconazole 10 µM, quinidine 10 µM, sulfobenzyrazole 100 µM, α-naphthoflavone 10 µM, tranylcypromine 1000 µM), a negative control (BPS with 0.1% DMSO) and a mixed probe substrate (midazolam 10 µM, testosterone 100 µM, dextromethorphan 10 µM, diclofenac 20 µM, phenacetin100 µM, mephenytoin100 µM), and the reaction was terminated after a warm incubation for 20 min.The relative enzyme activity was calculated by measuring the relative amount of metabolites produced.

hERG potassium channels = hERG potassium channels (Homo sapiens, UniProt Q12809); assay: hERG inhibition test; assay type: cell-based; details: highest test concentration 40 µM
CYP2C19 = target: T2, CYP2C19 (Homo sapiens, UniProt P33261); assay: Direct inhibition test (DI test), CYP2C19; assay type: in vitro ADME; details: human liver microsomes
T2 construct: a system of 100 µL of human liver microsomes (final concentration 0.2 mg/mL); from tissue; host or cells: human liver microsomes
Protocol: as §1

CYP1A2 = target: T3, CYP1A2 (Homo sapiens, UniProt P05177); assay: Direct inhibition test (DI test), CYP1A2; assay type: in vitro ADME; details: human liver microsomes
T3 construct: a system of 100 µL of human liver microsomes (final concentration 0.2 mg/mL); from tissue; host or cells: human liver microsomes
T3 sequence (P05177 1-516): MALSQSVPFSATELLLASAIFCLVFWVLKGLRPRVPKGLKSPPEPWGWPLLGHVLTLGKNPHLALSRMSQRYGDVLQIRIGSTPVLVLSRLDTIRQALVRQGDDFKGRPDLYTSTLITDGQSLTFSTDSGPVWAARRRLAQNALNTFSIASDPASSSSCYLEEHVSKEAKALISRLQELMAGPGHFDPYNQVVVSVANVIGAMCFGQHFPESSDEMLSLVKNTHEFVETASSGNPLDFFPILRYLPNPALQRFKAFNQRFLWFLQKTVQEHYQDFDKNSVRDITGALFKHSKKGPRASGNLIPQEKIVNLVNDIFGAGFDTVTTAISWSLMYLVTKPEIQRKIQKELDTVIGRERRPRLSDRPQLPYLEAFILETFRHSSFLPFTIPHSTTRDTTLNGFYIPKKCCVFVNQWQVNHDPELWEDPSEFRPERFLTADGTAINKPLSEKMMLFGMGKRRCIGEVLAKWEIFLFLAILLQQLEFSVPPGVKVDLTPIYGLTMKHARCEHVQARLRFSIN
Protocol: as §1

KRAS^G12C/SOS1 = target: T4, KRAS^G12C/SOS1 (Homo sapiens, UniProt P01116, G12C); assay: KRAS^G12C/SOS1 protein-protein interaction Binding assay (CisBio kit); details: class symbols
T4 construct: purchased CisBio
Protocol: CisBio’s KRAS^G12C/SOS1 kit was used to test the efficacy of the compound on inhibiting the protein-protein interaction between SOS1 and KRAS^G12Cby Binding assay.Results were expressed as IC50values.
Test methods: (1) the test compound was tested at a concentration of 1000 nM. Diluted to 3-fold diluted compound of a 200-fold final concentration of 100% DMSO solution in a 384-well plate at 10 concentrations. 50 nL of 200-fold final concentration of compound was transferred to the destination plate 384 well plate using a dispenser Echo 550.50 nL of 100% DMSO was added to the negative control wells and positive control wells; (2) 4-fold final concentration of Tag1 SOS1 solution was prepared using Diluent buffer; (3) 2.5 µL of 4-fold final concentration of Tag1 SOS1 solution was added to the 384-well plate; (4) 4-fold final concentration of Tag2 KRAS^G12C solution was prepared using Diluent buffer; (5) 2.5 µL of 4-fold final concentration of Tag2 KRAS^G12C solution was added to compound wells and positive control wells, respectively; 2.5 µL of diluent buffer was added to negative control wells; (6) the 384-well plate was centrifuged at 1000 rpm for 30 seconds, shaken and mixed, and incubated at room temperature for 15 min; (7) 1-fold final concentration of Anti Tag1 TB3+ solution and 1-fold final concentration of Anti Tag2 XL665 solution were prepared with Detection buffer, and 5 µL of the mixture was added to each well after mixing the two solutions; (8) the 384-well plate was centrifuged at 1000 rpm for 30 seconds, shaken and mixed, and incubated at room temperature for 120 minutes; (9) the Envision enzyme marker was used to read
Em665/620; (10) data analysis, calculation formula; where Min signal is the mean value of negative control wells, Max signal is the mean value of positive control wells.The log value of concentration was used as the X-axis and the percentage inhibition as the Y-axis to fit the quantitative efficacy curve using the log(inhibitor) vs. response Variable slope of the quantitative efficacy curve of the analytical software GraphPad Prism 5 to derive the IC50 value of each compound on the enzyme activity.The fitting formula was: Y=Bottom+(Top Bottom)/(1+10^A((LogIC50X)^∗ HillSlope)).

[1] = Metabolic stability assay, monkey liver microsomes; assay type: in vitro ADME; details: monkey liver microsomes 0.5 mg/mL, 1 µM compound, read-out: Liver microsomal stability (T½ /min) monkey
Protocol: Metabolic stability assay: A warm incubation for metabolic stability was performed with a system of 150 µL of liver microsomes (final concentration 0.5 mg/mL) containing NADPH (final concentration 1 mM), 1 µM of the test compound and positive control midazolam or negative control atenolol, and the reaction was terminated with acetonitrile containing tinidazole at 0 min, 5 min, 10 min and 30 min, respectively. The reaction was vortexed for 10 min and centrifuged at 15000 rmp for 10 min, and 50 µL of supernatant was taken into the 96-well plate for sampling. The metabolic stability of the compound was calculated by measuring the relative reduction of the drugs.

[2] = tested on: phosphorylated ERK levels of NCI-H358; assay: ERK phosphorylation (western blot), H358; assay type: cell-based; details: Homo sapiens, 3 h
Protocol: (§2) Test method 3 (ERK phosphorylation): Miapaca-2 or H358 cells were inoculated at certain concentrations in 96-well plates and incubated overnight at 37° C., 5% CO2 in a cell culture incubator, and serial dilutions of the test compound (5 concentrations, 3-fold dilution) were added to the plates the next day for 24 h (Miapaca-2) or 3 h (H358), then lysis solution containing protease and phosphatase inhibitor were added to lyse the cells to extract proteins and western blot method was used to detect the level of p-ERK.

[3] = tested on: phosphorylated ERK levels of MiaPaca-2; assay: ERK phosphorylation (western blot), MiaPaca-2; assay type: cell-based; details: Homo sapiens, MIA PaCa-2, 24 h
Protocol: as §2

Sequence of hERG potassium channels (Q12809 whole entry): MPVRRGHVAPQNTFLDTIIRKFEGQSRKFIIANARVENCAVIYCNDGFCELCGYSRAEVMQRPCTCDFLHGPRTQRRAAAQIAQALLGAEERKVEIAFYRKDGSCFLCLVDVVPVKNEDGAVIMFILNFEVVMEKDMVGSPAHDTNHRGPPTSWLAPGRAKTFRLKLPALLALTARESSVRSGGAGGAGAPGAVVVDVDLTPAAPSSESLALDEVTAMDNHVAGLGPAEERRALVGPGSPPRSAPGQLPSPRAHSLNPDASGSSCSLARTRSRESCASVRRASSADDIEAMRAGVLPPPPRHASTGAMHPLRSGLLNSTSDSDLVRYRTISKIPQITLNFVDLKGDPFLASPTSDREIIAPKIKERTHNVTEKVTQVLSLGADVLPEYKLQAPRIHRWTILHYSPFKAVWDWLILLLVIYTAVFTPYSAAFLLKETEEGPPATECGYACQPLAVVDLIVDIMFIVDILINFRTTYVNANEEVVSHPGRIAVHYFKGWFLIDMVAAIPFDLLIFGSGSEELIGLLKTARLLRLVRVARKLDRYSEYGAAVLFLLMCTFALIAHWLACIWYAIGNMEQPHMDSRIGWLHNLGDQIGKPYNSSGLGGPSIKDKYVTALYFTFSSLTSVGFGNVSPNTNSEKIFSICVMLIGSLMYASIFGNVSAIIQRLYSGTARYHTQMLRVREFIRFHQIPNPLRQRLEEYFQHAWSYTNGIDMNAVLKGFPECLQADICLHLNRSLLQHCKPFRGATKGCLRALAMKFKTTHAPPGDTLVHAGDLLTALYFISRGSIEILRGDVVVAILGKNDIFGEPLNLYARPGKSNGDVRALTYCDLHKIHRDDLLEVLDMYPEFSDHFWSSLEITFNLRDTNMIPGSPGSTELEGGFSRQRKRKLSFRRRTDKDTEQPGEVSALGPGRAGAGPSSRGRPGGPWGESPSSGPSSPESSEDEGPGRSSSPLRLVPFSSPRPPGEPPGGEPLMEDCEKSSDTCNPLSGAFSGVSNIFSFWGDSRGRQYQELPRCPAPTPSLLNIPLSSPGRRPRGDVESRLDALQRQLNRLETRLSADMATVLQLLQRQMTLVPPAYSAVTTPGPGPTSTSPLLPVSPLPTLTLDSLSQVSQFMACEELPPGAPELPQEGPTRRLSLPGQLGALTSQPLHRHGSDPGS
T4 sequence (P01116 1-188 isoform P01116-2 G12C): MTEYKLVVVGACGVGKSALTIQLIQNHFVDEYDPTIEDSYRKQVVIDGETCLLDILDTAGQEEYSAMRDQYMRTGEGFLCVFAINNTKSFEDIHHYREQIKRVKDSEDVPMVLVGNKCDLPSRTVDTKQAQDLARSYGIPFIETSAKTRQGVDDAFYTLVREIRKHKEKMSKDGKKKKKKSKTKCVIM
T1 sequence (P08684 whole entry): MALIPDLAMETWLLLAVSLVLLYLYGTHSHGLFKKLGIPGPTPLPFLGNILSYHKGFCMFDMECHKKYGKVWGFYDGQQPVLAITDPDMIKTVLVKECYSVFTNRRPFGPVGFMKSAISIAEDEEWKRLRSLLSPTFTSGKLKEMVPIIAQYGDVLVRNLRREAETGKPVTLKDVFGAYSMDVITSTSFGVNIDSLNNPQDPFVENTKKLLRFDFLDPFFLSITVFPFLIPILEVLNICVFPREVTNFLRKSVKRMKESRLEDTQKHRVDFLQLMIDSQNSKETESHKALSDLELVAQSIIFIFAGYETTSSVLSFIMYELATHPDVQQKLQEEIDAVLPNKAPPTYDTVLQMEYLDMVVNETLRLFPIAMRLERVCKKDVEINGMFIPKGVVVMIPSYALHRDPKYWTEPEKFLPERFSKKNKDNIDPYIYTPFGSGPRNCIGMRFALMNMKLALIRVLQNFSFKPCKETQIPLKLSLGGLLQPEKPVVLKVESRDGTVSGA
T2 sequence (P33261 whole entry): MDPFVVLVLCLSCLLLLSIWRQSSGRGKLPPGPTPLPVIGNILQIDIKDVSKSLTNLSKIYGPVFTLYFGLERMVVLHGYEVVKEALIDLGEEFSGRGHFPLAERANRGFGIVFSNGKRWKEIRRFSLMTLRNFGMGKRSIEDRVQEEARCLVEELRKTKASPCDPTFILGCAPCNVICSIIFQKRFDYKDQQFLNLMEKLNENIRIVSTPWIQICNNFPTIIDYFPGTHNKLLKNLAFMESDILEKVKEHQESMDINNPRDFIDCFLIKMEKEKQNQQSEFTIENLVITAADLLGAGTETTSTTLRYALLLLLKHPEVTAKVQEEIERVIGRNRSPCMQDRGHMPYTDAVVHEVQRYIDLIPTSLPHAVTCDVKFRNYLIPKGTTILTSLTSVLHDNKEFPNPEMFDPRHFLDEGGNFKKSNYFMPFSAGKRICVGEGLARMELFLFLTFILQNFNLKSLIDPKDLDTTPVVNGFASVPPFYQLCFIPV

IC50 (CYP3A4) [µM] | IC50 (CYP2C19) [µM] | IC50 (CYP1A2) [µM] | IC50 (KRAS^G12C/SOS1) [nM] | half-life at 1 µM [1] [min] | IC50 [2] [µM] | IC50 [3] [µM] | SMILES | IC50 (hERG potassium channels) [µM]
> 10 | > 10 | > 10 | < 50 | > 30 | < 0.5 | < 0.5 | C=CC(=O)N1CCN(c2c(C#N)c(N3CC(N(C)C)C3)nc3c(F)c(-c4ccc(F)c5sc(N)nc45)c(Cl)cc23)CC1 [Example 21, 4-(4-acryloyl Piperazin-1-yl)-7-(2-Amino-7-Fluorobenzo [d] Thiazol-4-yl) -6-Chloro-2-(3-(Dimethylamino) Azetidine-1-yl)-8-Fluoroquinolin-3 -Cyano] | > 20
> 10 | > 10 | > 10 | < 50 | > 30 | < 0.5 | < 0.5 | C=CC(=O)N1CCN(c2c(C#N)cnc3c(F)c(-c4ccc(F)c5sc(N)nc45)c(Cl)cc23)CC1 [Example 8] | > 20
> 10 | > 10 | > 10 | < 50 | > 30 | < 0.5 | < 0.5 | C=CC(=O)N1CCN(c2c(C#N)c(OC[C@@H]3CCCN3C)nc3c(F)c(-c4ccc(F)c5sc(N)nc45)c(Cl)cc23)CC1 [Example 3, 4-(4-Piperazinylacryloylpiperazin-1-yl)-7-(2-Amino-7-Fluorobenzo[d]Thiazol-4-yl)-6-Chloro-8-Fluoro-2-(((S)-1-Methylpyrrolidin-2-Yl)Methoxy)Quinoline-3-Cyano] | > 20
> 10 | > 10 | > 10 | 50 to 200 |  | < 0.5 | < 0.5 | C=CC(=O)N1CCN(c2nc(OC[C@@H]3CCCN3C)nc3c(F)c(-c4ccc(F)c5sc(N)nc45)c(Cl)cc23)C[C@H]1C [Example 11, 1-((2R)-4-(7-(2-Amino-7-Fluorobenzo [d] Thiazol-4-yl) -6-Chloro-8-Fluoro-2-(((S)-1-Methylpyrrolidin-2-yl) Methoxy) Quinazolin-4-yl)-2-Methylpiperazin-1-yl) Prop-2-En-1-One] | > 20

SMILES | IC50 (CYP3A4) [µM] | IC50 (CYP2C19) [µM] | IC50 (CYP1A2) [µM] | IC50 (KRAS^G12C/SOS1) [nM] | half-life at 1 µM [1] [min] | IC50 [2] [µM] | IC50 [3] [µM] | IC50 (hERG potassium channels) [µM]
C=CC(=O)N1C[C@@H]2C(=O)N(C)c3cnc4c(F)c(-c5ccc(F)c6sc(N)nc56)c(Cl)cc4c3N2C[C@H]1C (single isomer, unassigned) [Example 17-1] | > 10 | > 10 | > 10 | 50 to 200 |  |  |  | > 20
